Measured values as given in patent publication US20210251910A1, “FUMARIC ACID COMPOSITIONS WITH INCREASED BIOAVAILABILITY AND REDUCED SIDE EFFECTS” (Vitalis LLC, priority 2018, published 2021).

Experiments:
[1] = Example 2: comparative bioavailability, monomethyl fumarate plasma pharmacokinetics; type: in vivo, human; settings: normalized to 180 mg DMF
Procedure: The delayed-release capsules were placed on the subject's tongue. Subjects were instructed to suck the delayed-release capsule until the acetylsalicylic acid coating was dissolved or up to a maximum of 1 minute after the delayed-release capsule had been placed on the subject's tongue. The delayed-release capsule should not be chewed, bitten, or swallowed during that 1-minute period or until the coating is dissolved; only the saliva could be swallowed. The subject was instructed to give a hand sign once the acetylsalicylic acid coating was dissolved (the capsule should feel and taste different). […]

[2] = pretreatment with 325 mg aspirin for 4 days; Sheikh et al., Clin Ther. 2013; cited from earlier work
[3] = Example 2: flushing assessment in crossover study, VTS-72 vs Tecfidera; type: in vivo, human; settings: Example 2 conclusion, co-administration of aspirin
Procedure: This was a single center, pilot, comparative bioavailability, open-label, randomized, single-dose, 2-period, 2-sequence, crossover study under fasting conditions. A total of 12 healthy adult male or female volunteers were included in this pilot study. For each period, subjects were confined from at least 10 hours before dosing until 12 hours post-dose. There was a washout of 7 days or more between doses. The washout period could be increased for logistical considerations. Participation of each subject in this study lasted approximately 9 days. Subjects were administered each treatment according to the 2-period, 2-sequence, block randomization scheme.
Treatment A: Subjects were required not to wear dentures or to remove their tongue piercing at the time of dosing. The delayed-release capsules were placed on the subject's tongue. Subjects were instructed to suck the delayed-release capsule until the acetylsalicylic acid coating was dissolved or up to a maximum of 1 minute after the delayed-release capsule had been placed on the subject's tongue. […]
Flushing (including redness, warmth, tingling, and itchiness of the skin) was assessed at 0.5, 1, 1.5, 2, 2.5, 3, 3.5, and 4 hours post-dose using the question and the rating scale presented in Section—Flushing Assessment below. […] Flushing symptoms were recorded as adverse events.
Flushing was assessed using the question below. […]

[4] = Example 1: flush rating (Global Flush Severity Scale) after DMF without aspirin, with swallowed aspirin or with intraoral aspirin; type: in vivo, human; settings: MS patients
Procedure: Seven human patients with multiple sclerosis who were already taking dimethyl fumarate and had experienced flushing side effects from dimethyl fumarate were recruited for this study. […] In Period I, each patient was given their standard dose of 240 mg dimethyl fumarate orally. Each patient was asked to rate his or her flush on the Global Flush Severity Scale (GFSS) (see Paolini et al. Int. J. Clin. Pract. 62(6):896-904 (2008)), when the flush completely resolved. The Global Flushing Severity Score measures, overall, in the previous 24 hours, how each patient rates the flushing symptoms, including redness, warmth, tingling, and itchiness of the skin. […] After the flush completely resolved, then each patient recorded his or her GFSS flush rating. Not until at least two days later did Period III start. At Period III, each patient was asked to not swallow the orally administered aspirin (162 mg) but to allow the aspirin to be absorbed through the oral mucosa. The aspirin was in powdered form and the remaining aspirin in the mouth was washed out with water. Afterwards, 240 mg of dimethyl fumarate was swallowed with a glass of water. Still, the flush was rated (GFSS) after it was resolved.

[5] = Example 3: flushing side effect, VTS-72 (205 mg DMF) vs Tecfidera; type: in vivo, human; settings: Example 3, co-administration of aspirin
Procedure: Flushing (including redness, warmth, tingling, and itchiness of the skin) was assessed at 0.5, 1, 1.5, 2, 2.5, 3, 3.5, and 4 hours post-dose using the question and the rating scale presented in Section—Flushing Assessment below. Half grades were not assigned. Flushing symptoms were recorded as adverse events.
Flushing was assessed using the question below. The question was asked by the clinical staff: • Question 1: Overall, at this moment, how would you rate your flushing symptoms (including redness, warmth, tingling, and itchiness of the skin)? Score from 0 to 10 (none 0, mild 1 to 3, moderate 4 to 6, severe 7 to 9, extreme 10).
16 healthy individuals were enrolled for this study.

## CC(=O)Oc1ccccc1C(=O)O [aspirin, acetylsalicylic acid]
[1]
  impact of co-administration of aspirin on the Cmax of DMF: did not have significant impact
[2]
  effect of aspirin pretreatment on the pharmacokinetic profile of DMF: did not affect
[3]
  reduction of the flushing side effect: more than 35%
[4]; Period II: 162 mg aspirin orally swallowed followed by 240 mg dimethyl fumarate
  reduction of severity of flush (GFSS) as compared to Period I: 33%
[4]; Period III: 162 mg aspirin absorbed through the oral mucosa, then 240 mg dimethyl fumarate
  reduction of severity of flush (GFSS) as compared to Period I: 52%
[5]
  reduction of the flushing side effect: about 61%
